The assay has as its target KRAS (aa 1-169) G12C, C51S, C80L, C118S (Homo sapiens (Human), UniProt P01116, C118S/C51S/C80L/G12C). Nature of the assay: Biochemical functional assay: SOS1-mediated nucleotide exchange of GDP-loaded KRAS G12C, binding to GST-cRaf RBD, FRET readout. Particulars: 3 hrs pre-incubation with compound at 24° C., SOS1, GTPyS; for pIC50: inhibition of nucleotide exchange; for IC50: bound in uM. As for the experimental part: Biochemical Functional Assay
The KRAS (aa 1-169) G12C, C51S, C80L, C118S with a His-tag was expressed, purified and loaded with GDP in house. All protein and substrate solutions were prepared in assay buffer containing 25 mM HEPES pH7.5, 10 mM MgCl2, and 0.01% Triton X-100. Purified GDP-loaded KRAS (aa 1-169) G12C, C51S, C80L, C118S protein was pre-incubated with a serially diluted compound at 24° C. for 3 hrs. Purified SOS1 (aa 564-1049) protein, GTPyS (Sigma) and GST-cRaf RBD (aa 1-149) were then added to each well and incubated at 24° C. for additional 3 hrs. […] Following the incubation, Mab Anti-6HIS-T cryptate (Cisbio) and Mab Anti GST-XL665 (Cisbio) were added and further incubated at 24° C. for 3 hrs. The binding interaction between active GTPyS KRAS G12C and GST-cRaf RBD brings the Tb and XL665 into close proximity enabling an increased FRET signal (Ex337 nm, Em665 nm/620 nm). The inhibition percentage of nucleotide exchange reaction in presence of increasing concentrations of compounds was calculated based on the ratio of fluorescence at 665 nm to that at 620 nm detected on a BMG PHERAstar FSX instrument. The IC50 value of each compound was calculated from fitting the data to the four-parameter logistic model by Dotmatics.

Molecules are shown by their SMILES. pIC50: −log10 of the molar value.

KRAS (aa 1-169) G12C, C51S, C80L, C118S, sequence (P01116 other isoform, or with tags, fused parts or gaps G12C/C51S/C80L/C118S): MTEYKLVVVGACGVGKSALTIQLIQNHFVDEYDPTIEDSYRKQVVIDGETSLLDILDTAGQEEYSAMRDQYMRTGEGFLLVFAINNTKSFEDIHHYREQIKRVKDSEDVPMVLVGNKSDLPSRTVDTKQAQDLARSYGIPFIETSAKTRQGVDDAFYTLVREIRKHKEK

Broadly, the pIC50 is the IC50 on a negative log10 scale, so that one unit is a factor of ten. With `C=CC(=O)N1CCN(c2nc(OC[C@@H]3CCCN3C)nc3cc(-c4c(Cl)c(C)cc5[nH]ncc45)c4c(c23)OCCC4)C[C@@H]1CC#N` [Compound B1, 2-((2S)-1-acryloyl-4-(5-(5-chloro-6-methyl-1H-indazol-4-yl)-8-(((S)-1-methylpyrrolidin-2-yl)methoxy)-3,4-dihydro-2H-pyrano[2,3-f]quinazolin-10-yl)piperazin-2-yl)acetonitrile], the pIC50 is 8.52.

Consider `C=CC(=O)N1CCN(c2nc(N3CC(N(C)C)C3)nc3cc(-c4c(F)cccc4F)c4c(c23)OCCC4)CC1` [Compound B2, 1-(4-(5-(2,6-difluorophenyl)-8-(3-(dimethylamino)azetidin-1-yl)-3,4-dihydro-2H-pyrano[2,3-f]quinazolin-10-yl)piperazin-1-yl)prop-2-en-1-one], for which the pIC50 is 5.65. Still for that read-out and setting: with `C=CC(=O)N1CCN(c2nc(O[C@H]3CN(C)C[C@@H]3OC)nc3cc(-c4c(Cl)c(C)cc5[nH]ncc45)c4c(c23)OCCC4)C[C@@H]1CC#N` [Compound B3, 2-((2S)-1-acryloyl-4-(5-(5-chloro-6-methyl-1H-indazol-4-yl)-8-(((3S,4S)-4-methoxy-1-methylpyrrolidin-3-yl)oxy)-3,4-dihydro-2H-pyrano[2,3-f]quinazolin-10-yl)piperazin-2-yl)acetonitrile] the figure was 8.19; with `C=CC(=O)N1CCN(c2nc(N3CC(N(C)C)C3)nc3cc(-c4c(Cl)c(C)cc5[nH]ncc45)c4c(c23)OCCC4)C[C@@H]1CC#N` [Compound B4, 2-((2S)-1-acryloyl-4-(5-(5-chloro-6-methyl-1H-indazol-4-yl)-8-(3-(dimethylamino)azetidin-1-yl)-3,4-dihydro-2H-pyrano[2,3-f]quinazolin-10-yl)piperazin-2-yl)acetonitrile], 8.33. On the same count and under the same terms, to `C=CC(=O)N1CCN(c2nc(OCCN(C)C)nc3cc(-c4c(Cl)c(C)cc5[nH]ncc45)c4c(c23)OCCC4)C[C@@H]1CC#N` [Compound B5, 2-((2S)-1-acryloyl-4-(5-(5-chloro-6-methyl-1H-indazol-4-yl)-8-(2-(dimethylamino)ethoxy)-3,4-dihydro-2H-pyrano[2,3-f]quinazolin-10-yl)piperazin-2-yl)acetonitrile] belongs 8.10; to `C=CC(=O)N1CCN(c2nc(OC[C@@H]3CCCN3C)nc3cc(-c4c(Cl)c(C)cc5[nH]ncc45)c4c(c23)OCCC4)CC1` [Compound B6, 1-(4-(5-(5-chloro-6-methyl-1H-indazol-4-yl)-8-(((S)-1-methylpyrrolidin-2-yl)methoxy)-3,4-dihydro-2H-pyrano[2,3-f]quinazolin-10-yl)piperazin-1-yl)prop-2-en-1-one], 7.47. For `C=CC(=O)N1CCN(c2nc(N3CC(N(C)C)C3)nc3cc(-c4c(O)cccc4F)c4c(c23)OCCC4)CC1` [Compound B7, 1-(4-(8-(3-(dimethylamino)azetidin-1-yl)-5-(2-fluoro-6-hydroxyphenyl)-3,4-dihydro-2H-pyrano[2,3-f]quinazolin-10-yl)piperazin-1-yl)prop-2-en-1-one], the pIC50 is 5.96. Still for that read-out and setting: to `C=C(F)C(=O)N1CCN(c2nc(N3CC(N(C)C)C3)nc3cc(-c4c(O)cccc4F)c4c(c23)OCCC4)C[C@@H]1CC#N` [Compound B8, 2-((2S)-4-(8-(3-(dimethylamino)azetidin-1-yl)-5-(2-fluoro-6-hydroxyphenyl)-3,4-dihydro-2H-pyrano[2,3-f]quinazolin-10-yl)-1-(2-fluoroacryloyl)piperazin-2-yl)acetonitrile] belongs 6.59. With `C=C(F)C(=O)N1CCN(c2nc(N3CC(N(C)C)C3)nc3cc(-c4cccc(F)c4F)c4c(c23)OCCC4)C[C@@H]1CC#N` [Compound B9, (S)-2-(4-(5-(2,3-difluorophenyl)-8-(3-(dimethylamino)azetidin-1-yl)-3,4-dihydro-2H-pyrano[2,3-f]quinazolin-10-yl)-1-(2-fluoroacryloyl)piperazin-2-yl)acetonitrile], the pIC50 was 6.34. Regarding `C=CC(=O)N1CCN(c2nc(N3CC(N(C)C)C3)nc3cc(-c4cccc5ccccc45)c4c(c23)OCCC4)CC1` [Compound B10, 1-(4-(8-(3-(dimethylamino)azetidin-1-yl)-5-(naphthalen-1-yl)-3,4-dihydro-2H-pyrano[2,3-f]quinazolin-10-yl)piperazin-1-yl)prop-2-en-1-one], the pIC50 was 6.63. On the same count and under the same terms, with `C=C(F)C(=O)N1CCN(c2nc(OC[C@@H]3CCCN3C)nc3cc(-c4c(Cl)c(C)cc5[nH]ncc45)c4c(c23)OCCC4)C[C@@H]1CC#N` [Compound B11, 2-((2S)-4-(5-(5-chloro-6-methyl-1H-indazol-4-yl)-8-(((S)-1-methylpyrrolidin-2-yl)methoxy)-3,4-dihydro-2H-pyrano[2,3-f]quinazolin-10-yl)-1-(2-fluoroacryloyl)piperazin-2-yl)acetonitrile] the figure was 8.11.

As a reminder, the IC50 is the midpoint of a concentration-inhibition curve. Consider `C=CC(=O)N1CCN(c2nc(OC[C@@H]3C[C@@H](F)CN3C)nc3cc(-c4cccc(F)c4F)c4c(c23)OCCC4)CC1` [Compound B14, 1-(4-(5-(2,3-difluorophenyl)-8-(((2S,4R)-4-fluoro-1-methylpyrrolidin-2-yl)methoxy)-3,4-dihydro-2H-pyrano[2,3-f]quinazolin-10-yl)piperazin-1-yl)prop-2-en-1-one], for which the 50% inhibitory concentration (IC50) was more than 10 µM. `C=CC(=O)N1CCN(c2nc(OC[C@@H]3C[C@@H](F)CN3C)nc3cc(-c4c(Cl)c(C)cc5[nH]ncc45)c4c(c23)OCCC4)CC1` [Compound B15, 1-(4-(5-(5-chloro-6-methyl-1H-indazol-4-yl)-8-(((2S,4R)-4-fluoro-1-methylpyrrolidin-2-yl)methoxy)-3,4-dihydro-2H-pyrano[2,3-f]quinazolin-10-yl)piperazin-1-yl)prop-2-en-1-one]: the pIC50 is 6.97.

For `C=CC(=O)N1CCN(c2nc(N3CC(N(C)C)C3)nc3cc(-c4ccccc4F)c4c(c23)OCCC4)CC1` [Compound B16, 1-(4-(8-(3-(dimethylamino)azetidin-1-yl)-5-(2-fluorophenyl)-3,4-dihydro-2H-pyrano[2,3-f]quinazolin-10-yl)piperazin-1-yl)prop-2-en-1-one], the IC50 was more than 10 µM.

For the compound `C=CC(=O)N1CCN(c2nc(N3CC(N(C)C)C3)nc3cc(-c4cccc(Cl)c4)c4c(c23)OCCC4)CC1` [Compound B17, 1-(4-(5-(3-chlorophenyl)-8-(3-(dimethylamino)azetidin-1-yl)-3,4-dihydro-2H-pyrano[2,3-f]quinazolin-10-yl)piperazin-1-yl)prop-2-en-1-one], the IC50 is more than 10 µM. On the same count and under the same terms, to `C=CC(=O)N1CCN(c2nc(N3CC(N(C)C)C3)nc3cc(-c4ccccc4C)c4c(c23)OCCC4)CC1` [Compound B18, 1-(4-(8-(3-(dimethylamino)azetidin-1-yl)-5-(o-tolyl)-3,4-dihydro-2H-pyrano[2,3-f]quinazolin-10-yl)piperazin-1-yl)prop-2-en-1-one] belongs more than 10 µM; to `C=CC(=O)N1CCN(c2nc(N3CC(N(C)C)C3)nc3cc(-c4ccccc4C#N)c4c(c23)OCCC4)CC1` [Compound B19, 2-(10-(4-acryloylpiperazin-1-yl)-8-(3-(dimethylamino)azetidin-1-yl)-3,4-dihydro-2H-pyrano[2,3-f]quinazolin-5-yl)benzonitrile], more than 10 µM. In the case of `C=C(F)C(=O)N1CCN(c2nc(OC[C@@H]3C[C@@H](OC)CN3C)nc3cc(-c4cccc5cccc(Cl)c45)c4ccoc4c23)C[C@@H]1CC#N` [Compound B20, 2-((S)-4-(4-(8-chloronaphthalen-1-yl)-7-(((2S,4R)-4-methoxy-1-methylpyrrolidin-2-yl)methoxy)furo[2,3-f]quinazolin-9-yl)-1-(2-fluoroacryloyl)piperazin-2-yl)acetonitrile], the pIC50 is 7.80. In the case of `C=CC(=O)N1CCN(c2nc(N3CC(N(C)C)C3)nc3cc(-c4ccccc4Cl)c4c(c23)OCCC4)CC1` [Compound B21, 1-(4-(5-(2-chlorophenyl)-8-(3-(dimethylamino)azetidin-1-yl)-3,4-dihydro-2H-pyrano[2,3-f]quinazolin-10-yl)piperazin-1-yl)prop-2-en-1-one], the IC50 was more than 10 µM.

For `C=CC(=O)N1CCN(c2nc(N3CC(N(C)C)C3)nc3cc(-c4ccccc4C(F)(F)F)c4c(c23)OCCC4)CC1` [Compound B22, 1-(4-(8-(3-(dimethylamino)azetidin-1-yl)-5-(2-(trifluoromethyl)phenyl)-3,4-dihydro-2H-pyrano[2,3-f]quinazolin-10-yl)piperazin-1-yl)prop-2-en-1-one], the negative logarithm of the IC50 (pIC50) is 6.25. Regarding `C=CC(=O)N1CCN(c2nc(N(C)CCN(C)C)nc3cc(-c4cccc5cccc(Cl)c45)c4c(c23)OCCC4)CC1` [Compound B23, 1-(4-(5-(8-chloronaphthalen-1-yl)-8-((2-(dimethylamino)ethyl)(methyl)amino)-3,4-dihydro-2H-pyrano[2,3-f]quinazolin-10-yl)piperazin-1-yl)prop-2-en-1-one], the pIC50 was 6.69. On to `C=CC(=O)N1CCN(c2nc(N3CCN(C)CC3)nc3cc(-c4cccc5cccc(Cl)c45)c4c(c23)OCCC4)CC1` [Compound B24, 1-(4-(5-(8-chloronaphthalen-1-yl)-8-(4-methylpiperazin-1-yl)-3,4-dihydro-2H-pyrano[2,3-f]quinazolin-10-yl)piperazin-1-yl)prop-2-en-1-one], for which the half-inhibitory concentration (IC50) was more than 10 µM.

The values above are taken from patent US20240166660A1, “KRAS G12C INHIBITORS” (BeiGene Switzerland GmbH, priority 2021, published 2024).
